Converted amounts (≈) assume the structure as drawn. The source made the active and inactive calls. The rule behind the calls is not given here.
Test system: KB
Experiment: Cytotoxicity against human KB cells
Type: functional
Settings: for EC50: read-out: ED50 (the source's name)

SMILES | EC50 [µg/mL] | Activity
C/C=C(/C)C(=O)O[C@H]1[C@H](O)[C@]2(CO)[C@H](O)C[C@]3(C)C(=CC[C@@H]4[C@@]5(C)CC[C@H](O)C(C)(C)[C@@H]5CC[C@]43C)[C@@H]2CC1(C)C | 3 (≈ 5.24 µM) | 
C/C=C(/C)C(=O)O[C@H]1[C@H](OC(=O)/C(C)=C/C)C(C)(C)C[C@H]2C3=CC[C@@H]4[C@@]5(C)CC[C@H](O)C(C)(C)[C@@H]5CC[C@@]4(C)[C@]3(C)[C@@H](O)[C@@H](O)[C@]21CO [HIPPOCAESCULIN] | 3.6 (≈ 5.37 µM) | 
CC1(C)C[C@H]2C3=CC[C@@H]4[C@@]5(C)CC[C@H](O)C(C)(C)[C@@H]5CC[C@@]4(C)[C@]3(C)C[C@@H](O)[C@@]2(CO)[C@@H](O)[C@@H]1O |  | inactive
CC1(C)C[C@H]2C3=CC[C@@H]4[C@@]5(C)CC[C@H](O)C(C)(C)[C@@H]5CC[C@@]4(C)[C@]3(C)[C@@H](O)[C@@H](O)[C@@]2(CO)[C@@H](O)[C@@H]1O |  | inactive
CC1(C)OC[C@@]23[C@@H]4OC(C)(C)O[C@@H]4[C@]4(C)C(=CC[C@@H]5[C@@]6(C)CC[C@H](O)C(C)(C)[C@@H]6CC[C@]54C)[C@@H]2CC(C)(C)[C@@H](O)[C@@H]3O1 | 4 (≈ 6.82 µM) | 

— ChEMBL document CHEMBL1149013, “Antitumor agents, 82. Cytotoxic sapogenols from Aesculus hippocastanum” (1986)
